According to the NIST ThermoML archive (doi:10.1021/je300775u):

Experiment: xn = mol fraction of the nth substance listed
Settings: 101 kPa, Liquid; for speed of sound: Pulse-echo method; for mass density: Vibrating tube method

ClC(Cl)(Cl)Br [bromotrichloromethane] + CCCCCCC
Settings	mass density, 293.15 K [kg/m3]	mass density, 298.15 K [kg/m3]	mass density, 303.15 K [kg/m3]	mass density, 308.15 K [kg/m3]	mass density, 313.15 K [kg/m3]	speed of sound, 293.15 K [m/s]	speed of sound, 298.15 K [m/s]	speed of sound, 303.15 K [m/s]	speed of sound, 308.15 K [m/s]	speed of sound, 313.15 K [m/s]
x1 = 0.0527	731.54	727.03	722.5	717.94	713.35	1126.6	1105.8	1085.1	1064.5	1044
x1 = 0.1116	786.88	782.07	777.25	772.39	767.5	1100.3	1080.2	1060.4	1040.5	1020.7
x1 = 0.152	826.09	821.09	816.04	810.96	805.84	1083.8	1064.4	1044.9	1025.3	1005.8
x1 = 0.2038	878.08	872.78	867.43	862.07	856.67	1064.1	1045.2	1026	1007	988.3
x1 = 0.2512	927.29	921.75	916.16	910.53	904.88	1047.4	1028.9	1010.4	992	973.6
x1 = 0.2988	978.53	972.69	966.84	960.93	955.01	1031.9	1013.7	995.8	977.7	959.8
x1 = 0.3556	1041.97	1035.81	1029.61	1023.38	1017.12	1015	997.3	979.7	962.2	944.8
x1 = 0.4027	1096.65	1090.21	1083.75	1077.23	1070.68	1001.9	984.7	967.5	950.4	933.3
x1 = 0.4603	1166.3	1159.5	1152.66	1145.8	1138.9	987.5	970.6	953.9	937.2	920.7
x1 = 0.4989	1214.82	1207.8	1200.71	1193.57	1186.41	978.4	962	945.5	929.2	912.9
x1 = 0.5537	1286.16	1278.76	1271.34	1263.88	1256.37	966.7	950.6	934.7	918.8	902.9
x1 = 0.5961	1343.68	1336	1328.29	1320.53	1312.74	958.4	942.8	927.1	911.3	895.9
x1 = 0.6562	1428.79	1420.68	1412.54	1404.37	1396.16	948	932.8	917.4	902.2	887.1
x1 = 0.7088	1506.86	1498.38	1489.86	1481.3	1472.71	940.1	925.2	910.3	895.4	880.6
x1 = 0.7486	1568.29	1559.53	1550.71	1541.85	1532.96	934.8	920	905.3	890.7	876.2
x1 = 0.8001	1651.09	1641.91	1632.7	1623.44	1614.16	929	914.5	900.1	885.8	871.5
x1 = 0.8456	1727.53	1717.98	1708.38	1698.77	1689.12	924.6	910.4	896.2	882.2	868.2
x1 = 0.899	1821.57	1811.56	1801.52	1791.47	1781.35	920.6	906.7	892.8	879	865.3
x1 = 0.9521	1919.55	1909.09	1898.58	1888.06	1877.49	918	904.4	890.7	877.2	863.7
x1 = 1	2013.06	2002.14	1991.2	1980.24	1969.25	917.1	903.6	890.2	876.8	863.6

BrCBr [dibromomethane] + CCCCCCC
Settings	mass density, 293.15 K [kg/m3]	mass density, 298.15 K [kg/m3]	mass density, 303.15 K [kg/m3]	mass density, 308.15 K [kg/m3]	mass density, 313.15 K [kg/m3]	speed of sound, 293.15 K [m/s]	speed of sound, 298.15 K [m/s]	speed of sound, 303.15 K [m/s]	speed of sound, 308.15 K [m/s]	speed of sound, 313.15 K [m/s]
x1 = 0.0504	727.59	723.09	718.56	714	709.41	1128.1	1107.3	1086.4	1065.7	1045.1
x1 = 0.1039	776.8	772.01	767.19	762.36	757.48	1104.9	1084.7	1064.4	1044.3	1024.3
x1 = 0.1552	826.84	821.77	816.67	811.54	806.36	1084	1064.4	1044.8	1025.2	1005.6
x1 = 0.2037	877.02	871.66	866.26	860.84	855.37	1065.7	1046.5	1027.3	1008.2	989
x1 = 0.2532	931.38	925.72	920.03	914.3	908.53	1048.3	1029.7	1010.9	992.3	973.7
x1 = 0.3019	988.09	982.12	976.09	970.04	963.95	1032.4	1014.2	995.8	977.6	959.6
x1 = 0.354	1052.94	1046.61	1040.23	1033.82	1027.38	1016.7	999.1	981.2	963.5	946
x1 = 0.4022	1117.05	1110.37	1103.65	1096.88	1090.09	1003.5	986.1	968.8	951.5	934.5
x1 = 0.4552	1192.54	1185.46	1178.34	1171.15	1163.95	990.1	973.2	956.4	939.6	923
x1 = 0.4962	1254.87	1247.47	1240.03	1232.54	1225	980.6	964.2	947.8	931.2	914.8
x1 = 0.5532	1347.9	1339.98	1332.06	1324.08	1316.09	969.3	953.3	937.4	921.4	905.5
x1 = 0.6119	1452.49	1444.09	1435.65	1427.16	1418.62	959.2	943.8	928.3	912.9	897.5
x1 = 0.6543	1534.18	1525.37	1516.52	1507.63	1498.69	953.4	938.2	923.1	908	893
x1 = 0.7032	1635.75	1626.46	1617.14	1607.76	1598.32	948	933.3	918.6	903.9	889.2
x1 = 0.7514	1744.18	1734.39	1724.55	1714.66	1704.72	944.6	930.2	915.8	901.5	887.2
x1 = 0.8024	1869.64	1859.25	1848.85	1838.4	1827.87	942.9	928.9	915	901.1	887
x1 = 0.8518	2003.09	1992.14	1981.12	1970.07	1958.96	943.8	930.2	916.5	902.9	889.3
x1 = 0.9004	2147.05	2135.43	2123.78	2112.21	2100.38	947.2	933.8	920.3	907.1	893.8
x1 = 0.9502	2310.37	2298.08	2285.74	2273.36	2260.95	953.1	940.1	927.1	914.1	901.1
x1 = 1	2491.67	2478.61	2465.53	2452.42	2439.26	961.8	949.2	936.6	924	911.4
